Results reported in ChEMBL document CHEMBL5465560, “Selectivity Literature for EUbOPEN Chemogenomic Library” (2024).

How the values were obtained:
[1] = molecular target: T1, Tyrosine-protein kinase Tec (Homo sapiens) (UniProt P42680); test: Selectivity interaction (KinomeScan (DiscoverX)) EUB0000655a TEC; conditions: at 10 µM
T1 sequence (whole entry): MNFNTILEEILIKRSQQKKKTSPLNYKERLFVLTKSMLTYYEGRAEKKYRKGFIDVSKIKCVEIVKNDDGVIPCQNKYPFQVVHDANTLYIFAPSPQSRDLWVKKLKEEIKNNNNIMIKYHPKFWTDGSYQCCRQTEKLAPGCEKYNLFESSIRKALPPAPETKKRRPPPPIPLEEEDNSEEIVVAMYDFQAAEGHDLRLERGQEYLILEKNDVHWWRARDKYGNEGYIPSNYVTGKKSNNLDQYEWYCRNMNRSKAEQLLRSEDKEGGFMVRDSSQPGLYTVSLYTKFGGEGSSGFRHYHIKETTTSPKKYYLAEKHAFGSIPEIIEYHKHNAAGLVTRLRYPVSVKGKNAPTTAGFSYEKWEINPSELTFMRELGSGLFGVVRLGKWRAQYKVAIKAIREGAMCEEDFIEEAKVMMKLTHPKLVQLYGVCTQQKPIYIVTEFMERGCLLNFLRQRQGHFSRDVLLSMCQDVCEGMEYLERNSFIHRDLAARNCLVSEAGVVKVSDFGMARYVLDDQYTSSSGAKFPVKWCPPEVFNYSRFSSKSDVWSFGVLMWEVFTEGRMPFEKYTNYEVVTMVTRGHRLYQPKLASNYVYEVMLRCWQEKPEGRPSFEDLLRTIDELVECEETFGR

[2] = molecular target: Bone morphogenetic protein receptor type-1B (Homo sapiens, UniProt O00238); test: Selectivity interaction (KinomeScan (DiscoverX)) EUB0000618a BMPR1B; conditions: at 10 µM
[3] = molecular target: Tyrosine-protein kinase JAK1 (Homo sapiens, UniProt P23458); test: Selectivity interaction (SelectScreen profiling (Invitrogen)) EUB0000607a JAK1; conditions: at 2 µM
[4] = tested on: Tyrosine-protein kinase ABL1 (Homo sapiens), P00519 [F317L]; test: Selectivity interaction (KinomeScan (DiscoverX)) EUB0000045b ABL1; conditions: at 1 µM
[5] = molecular target: T2, Mitogen-activated protein kinase kinase kinase 3 (Homo sapiens) (UniProt Q99759); test: Selectivity interaction (ActivX KiNativ screen (kinase selectivity in THP-1 cell lysates)) EUB0000639a MAP3K3; format: subcellular; conditions: lysate, at 0.01 µM
T2 sequence (whole entry): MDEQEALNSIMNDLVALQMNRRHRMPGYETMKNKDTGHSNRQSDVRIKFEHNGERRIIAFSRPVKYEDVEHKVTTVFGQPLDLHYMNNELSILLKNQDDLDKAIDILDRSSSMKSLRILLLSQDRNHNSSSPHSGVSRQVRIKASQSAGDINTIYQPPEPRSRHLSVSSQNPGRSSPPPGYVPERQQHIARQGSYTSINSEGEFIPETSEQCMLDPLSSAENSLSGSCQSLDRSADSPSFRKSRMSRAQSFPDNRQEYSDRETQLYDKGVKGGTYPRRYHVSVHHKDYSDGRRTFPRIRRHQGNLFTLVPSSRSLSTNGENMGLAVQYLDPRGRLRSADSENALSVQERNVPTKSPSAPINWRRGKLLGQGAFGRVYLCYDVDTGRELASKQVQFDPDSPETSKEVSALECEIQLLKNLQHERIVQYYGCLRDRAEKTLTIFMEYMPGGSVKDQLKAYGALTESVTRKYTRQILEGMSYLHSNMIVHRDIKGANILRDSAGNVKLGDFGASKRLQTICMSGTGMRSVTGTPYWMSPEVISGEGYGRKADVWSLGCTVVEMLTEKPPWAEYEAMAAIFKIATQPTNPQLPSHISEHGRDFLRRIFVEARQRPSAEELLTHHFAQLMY

[6] = molecular target: Histone-lysine N-methyltransferase SUV39H2 (Homo sapiens) (UniProt Q9H5I1); test: Selectivity interaction (Transferase panel (protein, RNA, and DNA methyltransferases. and EP300 (acetyltransferase))) EUB0000270b SUV39H2
[7] = molecular target: Vascular endothelial growth factor receptor 2 (Homo sapiens, UniProt P35968); test: Selectivity interaction (KinomeScan (DiscoverX)) EUB0001049a KDR; conditions: at 1 µM
[8] = molecular target: T3, Serine/threonine-protein kinase LATS1 (Homo sapiens) (UniProt O95835); test: Selectivity interaction (KinomeScan (DiscoverX)) EUB0000695a LATS1; conditions: at 100 nM
T3 sequence (whole entry): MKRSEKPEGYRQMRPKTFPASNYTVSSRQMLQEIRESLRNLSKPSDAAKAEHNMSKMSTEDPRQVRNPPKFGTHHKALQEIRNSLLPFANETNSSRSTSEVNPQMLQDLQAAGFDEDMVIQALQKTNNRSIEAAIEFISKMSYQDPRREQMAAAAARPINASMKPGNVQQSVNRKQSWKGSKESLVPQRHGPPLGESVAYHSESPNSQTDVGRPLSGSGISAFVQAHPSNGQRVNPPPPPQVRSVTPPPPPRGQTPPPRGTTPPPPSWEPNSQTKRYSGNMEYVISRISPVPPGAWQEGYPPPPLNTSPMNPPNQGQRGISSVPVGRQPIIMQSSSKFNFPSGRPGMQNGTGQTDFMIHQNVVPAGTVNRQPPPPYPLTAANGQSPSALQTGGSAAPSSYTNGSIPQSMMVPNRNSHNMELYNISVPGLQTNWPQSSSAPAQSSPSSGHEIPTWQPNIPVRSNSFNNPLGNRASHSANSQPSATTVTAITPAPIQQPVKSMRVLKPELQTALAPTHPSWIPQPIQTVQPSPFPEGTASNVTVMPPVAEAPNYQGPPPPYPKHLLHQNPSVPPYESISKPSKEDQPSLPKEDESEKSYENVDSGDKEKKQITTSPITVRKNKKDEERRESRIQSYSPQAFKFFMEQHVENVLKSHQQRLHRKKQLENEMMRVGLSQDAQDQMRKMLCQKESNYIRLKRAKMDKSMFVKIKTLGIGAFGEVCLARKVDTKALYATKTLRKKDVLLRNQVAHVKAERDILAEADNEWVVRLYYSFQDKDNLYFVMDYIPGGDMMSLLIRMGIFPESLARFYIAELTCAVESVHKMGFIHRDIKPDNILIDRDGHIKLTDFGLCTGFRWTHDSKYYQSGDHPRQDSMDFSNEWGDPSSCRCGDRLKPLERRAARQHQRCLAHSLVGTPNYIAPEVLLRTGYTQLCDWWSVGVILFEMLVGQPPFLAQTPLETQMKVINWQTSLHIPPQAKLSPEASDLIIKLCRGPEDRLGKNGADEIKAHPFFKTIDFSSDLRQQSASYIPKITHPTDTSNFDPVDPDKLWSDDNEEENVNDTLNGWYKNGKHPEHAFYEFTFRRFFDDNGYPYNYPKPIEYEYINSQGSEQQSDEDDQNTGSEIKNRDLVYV

Sequence of Histone-lysine N-methyltransferase SUV39H2 (Homo sapiens) (Q9H5I1 whole entry): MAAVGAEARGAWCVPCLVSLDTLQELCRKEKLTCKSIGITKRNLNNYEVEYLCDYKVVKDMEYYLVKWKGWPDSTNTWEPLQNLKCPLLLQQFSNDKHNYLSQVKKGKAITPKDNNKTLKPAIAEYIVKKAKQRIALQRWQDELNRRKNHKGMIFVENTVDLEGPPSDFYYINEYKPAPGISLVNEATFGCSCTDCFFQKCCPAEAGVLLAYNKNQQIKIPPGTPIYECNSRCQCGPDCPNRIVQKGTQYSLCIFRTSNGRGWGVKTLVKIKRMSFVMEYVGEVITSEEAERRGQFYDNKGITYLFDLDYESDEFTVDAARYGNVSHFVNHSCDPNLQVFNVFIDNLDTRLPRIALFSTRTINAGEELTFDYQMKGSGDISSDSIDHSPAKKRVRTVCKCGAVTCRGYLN
Sequence of Tyrosine-protein kinase ABL1 (Homo sapiens), P00519 [F317L] (P00519 whole entry F317L): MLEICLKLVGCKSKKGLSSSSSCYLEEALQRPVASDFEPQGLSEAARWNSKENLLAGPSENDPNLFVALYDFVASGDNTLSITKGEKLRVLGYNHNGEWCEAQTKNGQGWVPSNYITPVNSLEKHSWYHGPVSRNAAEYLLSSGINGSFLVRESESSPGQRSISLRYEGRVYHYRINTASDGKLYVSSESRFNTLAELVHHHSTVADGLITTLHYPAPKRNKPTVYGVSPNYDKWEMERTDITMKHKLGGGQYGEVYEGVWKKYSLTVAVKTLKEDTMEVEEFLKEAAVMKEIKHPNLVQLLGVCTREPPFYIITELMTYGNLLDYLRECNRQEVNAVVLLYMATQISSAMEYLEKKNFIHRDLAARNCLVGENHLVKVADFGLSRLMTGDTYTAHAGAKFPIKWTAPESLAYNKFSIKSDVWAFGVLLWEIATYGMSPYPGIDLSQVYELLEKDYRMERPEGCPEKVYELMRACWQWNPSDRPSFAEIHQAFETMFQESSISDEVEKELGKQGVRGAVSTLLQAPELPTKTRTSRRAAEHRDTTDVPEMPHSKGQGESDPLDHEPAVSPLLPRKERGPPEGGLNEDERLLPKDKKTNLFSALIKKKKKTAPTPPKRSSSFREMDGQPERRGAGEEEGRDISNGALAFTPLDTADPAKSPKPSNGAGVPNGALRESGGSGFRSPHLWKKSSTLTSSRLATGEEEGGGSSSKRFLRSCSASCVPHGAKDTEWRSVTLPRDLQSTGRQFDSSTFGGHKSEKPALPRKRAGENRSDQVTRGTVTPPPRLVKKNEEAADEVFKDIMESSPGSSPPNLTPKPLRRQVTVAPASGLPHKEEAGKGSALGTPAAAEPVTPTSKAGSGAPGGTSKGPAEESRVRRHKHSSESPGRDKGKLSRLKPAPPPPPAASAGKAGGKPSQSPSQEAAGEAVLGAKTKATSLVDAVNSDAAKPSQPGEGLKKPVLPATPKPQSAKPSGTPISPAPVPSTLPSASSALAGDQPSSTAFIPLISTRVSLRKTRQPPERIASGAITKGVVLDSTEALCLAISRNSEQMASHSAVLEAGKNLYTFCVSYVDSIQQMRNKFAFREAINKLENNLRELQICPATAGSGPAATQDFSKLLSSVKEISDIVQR
Sequence of Bone morphogenetic protein receptor type-1B (O00238 whole entry): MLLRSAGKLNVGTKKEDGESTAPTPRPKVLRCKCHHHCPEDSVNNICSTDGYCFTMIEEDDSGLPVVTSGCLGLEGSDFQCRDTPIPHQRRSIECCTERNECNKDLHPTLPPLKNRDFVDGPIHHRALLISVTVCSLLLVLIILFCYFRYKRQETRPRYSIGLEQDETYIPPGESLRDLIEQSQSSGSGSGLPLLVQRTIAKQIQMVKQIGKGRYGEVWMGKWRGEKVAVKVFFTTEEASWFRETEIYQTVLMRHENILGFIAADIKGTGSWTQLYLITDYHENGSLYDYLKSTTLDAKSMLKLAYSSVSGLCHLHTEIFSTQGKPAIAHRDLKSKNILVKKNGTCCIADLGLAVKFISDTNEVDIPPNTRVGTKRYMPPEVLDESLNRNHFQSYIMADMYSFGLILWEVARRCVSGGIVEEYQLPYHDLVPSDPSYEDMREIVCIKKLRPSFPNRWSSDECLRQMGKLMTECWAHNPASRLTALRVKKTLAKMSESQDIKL
Sequence of Vascular endothelial growth factor receptor 2 (P35968 whole entry): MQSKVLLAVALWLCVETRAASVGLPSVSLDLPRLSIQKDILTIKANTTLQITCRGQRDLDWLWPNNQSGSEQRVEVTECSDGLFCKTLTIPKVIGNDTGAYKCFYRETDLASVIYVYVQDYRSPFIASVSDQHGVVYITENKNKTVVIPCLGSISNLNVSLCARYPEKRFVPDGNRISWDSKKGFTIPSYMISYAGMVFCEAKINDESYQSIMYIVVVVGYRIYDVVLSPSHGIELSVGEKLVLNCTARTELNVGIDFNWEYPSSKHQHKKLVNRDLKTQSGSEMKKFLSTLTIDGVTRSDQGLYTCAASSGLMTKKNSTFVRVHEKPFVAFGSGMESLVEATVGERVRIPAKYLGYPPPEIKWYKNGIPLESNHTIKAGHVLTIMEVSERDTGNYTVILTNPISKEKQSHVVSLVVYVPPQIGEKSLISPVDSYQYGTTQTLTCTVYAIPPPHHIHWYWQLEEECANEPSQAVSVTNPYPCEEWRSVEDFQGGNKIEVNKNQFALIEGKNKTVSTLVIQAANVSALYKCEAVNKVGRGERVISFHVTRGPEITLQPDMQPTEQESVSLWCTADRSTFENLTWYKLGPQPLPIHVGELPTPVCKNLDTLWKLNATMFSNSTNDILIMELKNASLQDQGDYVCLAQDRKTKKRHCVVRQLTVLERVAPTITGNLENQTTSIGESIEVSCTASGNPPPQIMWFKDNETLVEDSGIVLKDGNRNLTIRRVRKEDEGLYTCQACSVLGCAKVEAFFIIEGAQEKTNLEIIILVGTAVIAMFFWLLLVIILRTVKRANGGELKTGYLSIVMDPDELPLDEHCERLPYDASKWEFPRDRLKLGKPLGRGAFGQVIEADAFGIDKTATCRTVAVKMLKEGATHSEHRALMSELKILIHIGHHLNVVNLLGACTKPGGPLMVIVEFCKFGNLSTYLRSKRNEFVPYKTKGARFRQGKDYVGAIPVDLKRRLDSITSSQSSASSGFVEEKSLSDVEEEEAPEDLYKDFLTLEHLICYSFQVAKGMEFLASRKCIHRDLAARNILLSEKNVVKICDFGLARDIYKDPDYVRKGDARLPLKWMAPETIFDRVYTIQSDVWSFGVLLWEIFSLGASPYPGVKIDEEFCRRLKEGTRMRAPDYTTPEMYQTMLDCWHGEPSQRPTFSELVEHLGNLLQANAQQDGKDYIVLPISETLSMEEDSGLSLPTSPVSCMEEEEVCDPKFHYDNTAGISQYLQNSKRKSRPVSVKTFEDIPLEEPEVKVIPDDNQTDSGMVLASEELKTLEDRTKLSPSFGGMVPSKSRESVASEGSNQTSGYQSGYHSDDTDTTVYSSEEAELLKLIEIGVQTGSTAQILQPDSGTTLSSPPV
Sequence of Tyrosine-protein kinase JAK1 (P23458 whole entry): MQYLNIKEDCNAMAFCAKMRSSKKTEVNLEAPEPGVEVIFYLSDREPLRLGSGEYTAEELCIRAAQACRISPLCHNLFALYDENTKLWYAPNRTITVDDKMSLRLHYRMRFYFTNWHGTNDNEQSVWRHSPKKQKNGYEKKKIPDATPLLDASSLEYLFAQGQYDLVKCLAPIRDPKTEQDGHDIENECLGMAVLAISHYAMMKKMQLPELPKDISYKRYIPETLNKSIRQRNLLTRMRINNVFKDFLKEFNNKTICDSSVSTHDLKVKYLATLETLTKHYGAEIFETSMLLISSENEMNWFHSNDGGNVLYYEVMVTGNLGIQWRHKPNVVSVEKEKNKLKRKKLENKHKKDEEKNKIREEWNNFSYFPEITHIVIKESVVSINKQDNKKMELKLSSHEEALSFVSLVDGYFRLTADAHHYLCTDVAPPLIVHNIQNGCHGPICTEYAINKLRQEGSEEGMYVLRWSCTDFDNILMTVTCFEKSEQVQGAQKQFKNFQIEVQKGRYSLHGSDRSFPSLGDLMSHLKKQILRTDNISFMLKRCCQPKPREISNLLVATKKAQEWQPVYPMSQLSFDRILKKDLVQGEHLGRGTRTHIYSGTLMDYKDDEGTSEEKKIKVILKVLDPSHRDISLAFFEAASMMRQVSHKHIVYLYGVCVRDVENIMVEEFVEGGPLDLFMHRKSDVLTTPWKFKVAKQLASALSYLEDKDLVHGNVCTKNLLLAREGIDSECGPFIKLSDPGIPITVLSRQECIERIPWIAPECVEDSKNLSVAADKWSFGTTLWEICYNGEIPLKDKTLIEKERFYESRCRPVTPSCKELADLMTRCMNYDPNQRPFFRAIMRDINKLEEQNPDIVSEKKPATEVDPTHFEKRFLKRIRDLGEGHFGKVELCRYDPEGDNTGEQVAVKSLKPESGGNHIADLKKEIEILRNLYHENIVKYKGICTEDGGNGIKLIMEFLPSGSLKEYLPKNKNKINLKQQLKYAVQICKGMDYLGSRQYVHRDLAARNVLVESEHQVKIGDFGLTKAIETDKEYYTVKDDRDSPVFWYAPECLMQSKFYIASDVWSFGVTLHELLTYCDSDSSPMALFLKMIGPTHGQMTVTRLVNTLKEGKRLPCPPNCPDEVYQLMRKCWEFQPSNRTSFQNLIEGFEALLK

CN(C)CCOc1ccc(-c2nc(-c3ccncc3)c(-c3ccc4c(c3)CC/C4=N\O)[nH]2)cc1
% of control [1]: 91%

O[C@H]1CC[C@H](Nc2ncc3nc(Nc4c(F)cc(F)cc4F)n([C@H]4CCOC4)c3n2)CC1
% of control [2]: 100%

CNC(=O)Nc1ccc(-c2nc(N3CC4CCC(C3)O4)c3cnn(C4CCC5(CC4)OCCO5)c3n2)cc1
% of inhibition [3]: 5%

C=CC(=O)Nc1cc(-n2c(=O)ccc3cnc4ccc(-c5ccc(NS(C)(=O)=O)cc5)cc4c32)ccc1C
% of control [4]: 100%

CC[C@@H]1[C@H](F)C(=O)N[C@@H]1COc1nccc2cc(C(N)=O)c(OC)cc12 [ZIMLOVISERTIB]
% of inhibition [5]: -6.1%

Cc1cc(CN)cc(C)c1-c1ncn(C)c1-c1cncn1C
% activity ([6]; at 1 µM): > 90% | % activity ([6]; at 10 µM): > 80%

COc1cc(Nc2nc(C)cc(-c3cnn4nc(OC)ccc34)n2)cc(C(F)(F)F)c1
% of control [7]: 95%

Cc1cc(F)c(C(=O)Nc2cccc(-c3nncn3C(C)C)n2)cc1-n1cnc(C2CC2)c1
% of control [8]: 86%
